Measurements as given in PMC2033796, “Mechanisms of acquired resistance to the quinazoline thymidylate synthase inhibitor ZD1694 (Tomudex) in one mouse and three human cell lines” (British Journal of Cancer, 1995).

Target: T1, TS isolated from human ovarian CH1 cells (CH1 TS) (Homo sapiens, UniProt P04818)
T1 construct: gene TYMS; native enzyme partially purified from CH1 ovarian tumour cells (parental line), no tag
Assay: 3H release from [[…]-3H]dUMP, non-linear regression
Assay type: biochemical

T1 sequence (P04818 2-313): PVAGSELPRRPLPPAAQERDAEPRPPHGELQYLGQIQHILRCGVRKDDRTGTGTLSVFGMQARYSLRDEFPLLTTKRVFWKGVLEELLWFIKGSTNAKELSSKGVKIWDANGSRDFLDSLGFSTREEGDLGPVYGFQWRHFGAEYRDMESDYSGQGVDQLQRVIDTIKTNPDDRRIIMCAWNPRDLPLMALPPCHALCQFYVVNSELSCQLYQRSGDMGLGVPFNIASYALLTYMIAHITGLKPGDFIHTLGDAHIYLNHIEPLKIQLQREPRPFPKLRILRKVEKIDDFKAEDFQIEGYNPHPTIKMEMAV

Ki: 1.6 ± 0.1 nM
SMILES: Cc1nc2ccc(CN(C)c3ccc(C(=O)N[C@@H](CCC(=O)N[C@@H](CCC(=O)N[C@@H](CCC(=O)O)C(=O)O)C(=O)O)C(=O)O)s3)cc2c(=O)[nH]1 [ZD1694 triglutamate]
